# Data: patent publication US20130005568A1, “SAFENED HERBICIDAL MIXTURES” (E.I. DU PONT DE NEMOURS AND COMPANY, priority 2011, published 2013)
# Legend:
# Test in all cases: Test G: turf grass and weed postemergence plant response rating
# Bermudagrass = assay type: in vivo, Cynodon dactylon (L.) Pers.; conditions: Bermudagrass, postemergence, greenhouse, three weeks, 0-100 scale
# From the text: (§1) For all of the following biological tests, plant response ratings were based on a 0-100 scale where zero is growth equivalent to that of untreated plants (no plant response) and 100 represents no additional growth occurring after herbicide treatment.
# Plants of the turf grass species: zoysia (Zoysia japonica Steud.), bermudagrass (Cynodon dactylon (L.) Pers.), tall fescue (Festuca arundinacea Shreib.), creeping bentgrass (Agrostis stoonoifera L.), perennial ryegrass (Lolium perenne L.) and hard fescue (Festuca species) were grown under greenhouse conditions for four months. Plants were clipped as needed to plant heights of 5-10 cm. […] Herbicide mixtures were formulated, dissolved/dispersed in water containing 0.25% non-ionic surfactant, and sprayed postemergence to these turf grasses and weeds. Treated plants were grown under greenhouse conditions for three weeks before visual evaluations of plant responses were recorded.
# Tall fescue = assay type: in vivo, Festuca arundinacea Shreib.; conditions: Tall fescue, postemergence, greenhouse, three weeks, 0-100 scale
# From the text: as §1
# (§2) Plants of the turf grass species: zoysia (Zoysia japonica Steud.), bermudagrass (Cynodon dactylon (L.) Pers.), tall fescue (Festuca arundinacea Shreib.), creeping bentgrass (Agrostis stoonoifera L.), perennial ryegrass (Lolium perenne L.) and hard fescue (Festuca species) were grown under greenhouse conditions for four months. Plants were clipped as needed to plant heights of 5-10 cm. Weeds typically found in turf: annual bluegrass (Poa annua L.), common chickweed (Stellaria media (L.) Vill.), large crabgrass (Digitaria sanguinales (L.) Scop.), dandelion (Taraxacum officinale Weber in Wiggers), goosegrass (Eleusine indica (L.) Gaertn.), henbit (Lamium amplexicaule L.), venice mallow (Hibiscus trionium L.) and purple nutsedge (Cyperus rotundus L.) were also grown under greenhouse conditions so that plants were 5-20 cm tall when they were treated. Herbicide mixtures were formulated, dissolved/dispersed in water containing 0.25% non-ionic surfactant, and sprayed postemergence to these turf grasses and weeds. Treated plants were grown under greenhouse conditions for three weeks before visual evaluations of plant responses were recorded.
# Goosegrass = assay type: in vivo, Eleusine indica (L.) Gaertn.; conditions: Goosegrass, postemergence, greenhouse, three weeks, 0-100 scale
# From the text: as §1, §2
# Dandelion = assay type: in vivo, Taraxacum officinale Weber in Wiggers; conditions: Dandelion, postemergence, greenhouse, three weeks, 0-100 scale
# From the text: as §1, §2
# Venice mallow = assay type: in vivo, Hibiscus trionium L.; conditions: Venice mallow, postemergence, greenhouse, three weeks, 0-100 scale
# From the text: as §1, §2
# Annual bluegrass = assay type: in vivo, Poa annua L.; conditions: Annual bluegrass, postemergence, greenhouse, three weeks, 0-100 scale
# From the text: as §1, §2
# Perennial ryegrass = assay type: in vivo, Lolium perenne L.; conditions: Perennial ryegrass, postemergence, greenhouse, three weeks, 0-100 scale
# From the text: as §1, §2
# Zoysia grass = assay type: in vivo, Zoysia japonica Steud.; conditions: Zoysia grass, postemergence, greenhouse, three weeks, 0-100 scale
# From the text: as §1, §2
# Purple nutsedge = assay type: in vivo, Cyperus rotundus L.; conditions: Purple nutsedge, postemergence, greenhouse, three weeks, 0-100 scale
# From the text: as §1, §2
# Creeping bentgrass = assay type: in vivo, Agrostis stoonoifera L.; conditions: Creeping bentgrass, postemergence, greenhouse, three weeks, 0-100 scale
# From the text: as §1, §2
# Henbit = assay type: in vivo, Lamium amplexicaule L.; conditions: Henbit, postemergence, greenhouse, three weeks, 0-100 scale
# From the text: as §1, §2
# Chickweed = assay type: in vivo, Stellaria media (L.) Vill.; conditions: Chickweed, postemergence, greenhouse, three weeks, 0-100 scale
# From the text: as §1, §2
# Large crabgrass = assay type: in vivo, Digitaria sanguinales (L.) Scop.; conditions: Large crabgrass, postemergence, greenhouse, three weeks, 0-100 scale
# From the text: as §1, §2
# Hard fescue = assay type: in vivo, Festuca species; conditions: Hard fescue, postemergence, greenhouse, three weeks, 0-100 scale
# From the text: as §1, §2
# [1] = herbicide 80 g ai/ha + Compound 1 125 g ai/ha
structure (smiles),measurement,setting,value
"COc1cc(OC)nc(NC(=O)NS(=O)(=O)c2ncccc2C(=O)N(C)C)n1 [Nicosulfuron, nicosulfuron]","Observed Response, Herbicide mixture with Compound 1",Bermudagrass; [1],0
same,"Observed Response, Herbicide alone",Bermudagrass; herbicide 80 g ai/ha,0
same,"Observed Response, Herbicide mixture with Compound 1",Tall fescue; [1],60
same,"Observed Response, Herbicide alone",Tall fescue; herbicide 80 g ai/ha,60
same,"Observed Response, Herbicide mixture with Compound 1",Goosegrass; [1],90
same,"Observed Response, Herbicide alone",Goosegrass; herbicide 80 g ai/ha,80
same,"Observed Response, Herbicide mixture with Compound 1",Dandelion; [1],100
same,"Observed Response, Herbicide alone",Dandelion; herbicide 80 g ai/ha,100
same,"Observed Response, Herbicide mixture with Compound 1",Venice mallow; [1],80
same,"Observed Response, Herbicide alone",Venice mallow; herbicide 80 g ai/ha,40
same,"Observed Response, Herbicide mixture with Compound 1",Annual bluegrass; [1],100
same,"Observed Response, Herbicide alone",Annual bluegrass; herbicide 80 g ai/ha,100
same,"Observed Response, Herbicide mixture with Compound 1",Perennial ryegrass; [1],50
same,"Observed Response, Herbicide alone",Perennial ryegrass; herbicide 80 g ai/ha,80
same,"Observed Response, Herbicide mixture with Compound 1",Zoysia grass; [1],0
same,"Observed Response, Herbicide alone",Zoysia grass; herbicide 80 g ai/ha,25
same,"Observed Response, Herbicide mixture with Compound 1",Purple nutsedge; [1],80
same,"Observed Response, Herbicide alone",Purple nutsedge; herbicide 80 g ai/ha,80
same,"Observed Response, Herbicide mixture with Compound 1",Creeping bentgrass; [1],88
same,"Observed Response, Herbicide alone",Creeping bentgrass; herbicide 80 g ai/ha,80
same,"Observed Response, Herbicide mixture with Compound 1",Henbit; [1],100
same,"Observed Response, Herbicide alone",Henbit; herbicide 80 g ai/ha,100
same,"Observed Response, Herbicide mixture with Compound 1",Chickweed; [1],100
same,"Observed Response, Herbicide alone",Chickweed; herbicide 80 g ai/ha,100
same,"Observed Response, Herbicide mixture with Compound 1",Large crabgrass; [1],100
same,"Observed Response, Herbicide alone",Large crabgrass; herbicide 80 g ai/ha,100
same,"Observed Response, Herbicide mixture with Compound 1",Hard fescue; [1],30
same,"Observed Response, Herbicide alone",Hard fescue; herbicide 80 g ai/ha,60
